Measured values: ChEMBL document CHEMBL1201862, “PubChem BioAssay data set” (2004)
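Grown in 96-well plates, cells were treated for 48 hours with each compound at five concentrations. Insufficient inhibition: endpoint recorded as highest concentration tested. Abbreviation: GI50, concentration required for 50% inhibition of growth.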 Active and inactive are the calls of the source. Rule as the data show it: active = GI50 up to about 1.1 µM and inactive = higher.

Legend:
Test in all cases: NCI anticancer screen, dose series, 48 h
UO-31 = tested on: UO-31
PC-3 = tested on: PC-3
SK-OV-3 = tested on: SK-OV-3
TK-10 = tested on: TK-10
HCT-116 = tested on: HCT-116
DU-145 = tested on: DU-145
SK-MEL-2 = tested on: SK-MEL-2
NCI-H460 = tested on: NCI-H460
786-0 = tested on: 786-0
NCI-H226 = tested on: NCI-H226
A498 = tested on: A498
K562 = tested on: K562
OVCAR-5 = tested on: OVCAR-5
Malme-3M = tested on: Malme-3M
BT-549 = tested on: BT-549
NCI/ADR-RES = tested on: NCI/ADR-RES
T47D = tested on: T47D
U-251 = tested on: U-251
CCRF-CEM = tested on: CCRF-CEM
HOP-92 = tested on: HOP-92

Measured: GI50

Cn1c2ccccc2c(=O)c2cccc(C(=O)NC(CS)C(=O)O)c21 (stereo not given)
inactive: UO-31 > 100 µM | PC-3 > 100 µM | SK-OV-3 > 100 µM | TK-10 > 100 µM | HCT-116 68.9 µM | DU-145 > 100 µM | SK-MEL-2 > 100 µM | NCI-H460 > 100 µM | 786-0 81.1 µM | NCI-H226 40.1 µM | A498 > 100 µM | K562 52.1 µM | OVCAR-5 > 100 µM | Malme-3M > 100 µM | BT-549 > 100 µM | NCI/ADR-RES 23.6 µM | T47D > 100 µM | U-251 > 100 µM

CCCCC1Nc2ccccc2-c2ccnc(Cl)c21 (stereo not given)
inactive: UO-31 20 µM | CCRF-CEM 19.1 µM | PC-3 25.8 µM | SK-OV-3 20.3 µM | TK-10 33 µM | HCT-116 15.7 µM | DU-145 20.5 µM | SK-MEL-2 16.8 µM | NCI-H460 32.1 µM | 786-0 19.5 µM | NCI-H226 17.6 µM | A498 16.8 µM | K562 20.9 µM | Malme-3M 20.8 µM | BT-549 18 µM | NCI/ADR-RES 27.7 µM | HOP-92 14.2 µM | U-251 21.4 µM

O=C(O)C(NCc1ccccc1)C(NCc1ccccc1)C(=O)O (stereo not given)
inactive: UO-31 > 100 µM | CCRF-CEM > 100 µM | SK-OV-3 > 100 µM | TK-10 > 100 µM | HCT-116 > 100 µM | DU-145 > 100 µM | SK-MEL-2 > 100 µM | NCI-H460 > 100 µM | 786-0 > 100 µM | NCI-H226 > 100 µM | A498 > 100 µM | K562 > 100 µM | Malme-3M > 100 µM | BT-549 > 100 µM | NCI/ADR-RES > 100 µM | T47D > 100 µM | HOP-92 > 100 µM | U-251 > 100 µM

O=c1c2ccccc2[nH]c2c(Cl)cc(Cl)c(NC3CCCCC3)c12
inactive: UO-31 15.3 µM | CCRF-CEM > 10 µM | PC-3 22.8 µM | SK-OV-3 32.2 µM | TK-10 22.2 µM | HCT-116 38.5 µM | SK-MEL-2 16.8 µM | 786-0 31.3 µM | NCI-H226 21.6 µM | A498 19.4 µM | K562 22.4 µM | OVCAR-5 20.1 µM | BT-549 27.5 µM | NCI/ADR-RES 18.5 µM | T47D 31.1 µM | U-251 16.7 µM

CSC1=Nc2ccccc2-c2nc(-c3ccccc3)cc(-c3ccccc3)c2C1
inactive: UO-31 23.5 µM | CCRF-CEM > 100 µM | PC-3 21.4 µM | SK-OV-3 12.2 µM | TK-10 16.2 µM | HCT-116 5.16 µM | DU-145 60.4 µM | NCI-H460 5.12 µM | 786-0 10.2 µM | NCI-H226 87.9 µM | A498 9.93 µM | K562 30.8 µM | OVCAR-5 33 µM | BT-549 39.7 µM | NCI/ADR-RES 19.7 µM | T47D 10.4 µM | U-251 7.03 µM

O=C(C(Cl)Cl)N(O)c1ccccc1OCc1ccccc1
inactive: UO-31 36.9 µM | CCRF-CEM 1.79 µM | PC-3 27.8 µM | SK-OV-3 > 100 µM | TK-10 56 µM | HCT-116 63.8 µM | DU-145 17 µM | SK-MEL-2 80 µM | NCI-H460 > 100 µM | 786-0 83.2 µM | NCI-H226 78.3 µM | K562 37.6 µM | OVCAR-5 > 100 µM | Malme-3M 81.8 µM | NCI/ADR-RES 22.8 µM | T47D 19.1 µM | U-251 38.5 µM
active: BT-549 0.0395 µM
